# Values joined by “and” are separate entries in the source; they are usually repeats but may differ in a detail not shown here. Equal entries are not always repeated. Structures can show the parent of a compound that is named as a salt. Where two headings read alike, the source gives them in different places.
# Key:
# [1] = system: chloroquine-sensitive P. falciparum (NF54); test: Antimalarial activity in vitro, [3H]hypoxanthine incorporation; assay type: cell-based
# [2] = system: 60 cell line panel; assay type: cell-based; details: leukemia cell line RPM 1-8226, melanoma cell line SK-MEL-5, renal cancer cell line ACHN
# [3] = system: P. berghei NY malaria parasite; test: Antimalarial efficacies in vivo in mice
# Source text: Neither overt toxicity nor behavioral modification was observed due to drug administration in any of these mouse experiments.
# [4] = system: male CD-1 mice; test: Acute toxicity study, single intraperitoneal injection; details: single ip, male CD-1 mice
# Experimental: Each compound was dissolved in DMSO (Mallinkrodt Lot No. V18H15) to achieve a concentration of 200 mg/ml, and then 3 parts sesame oil (Spectrum Lot No. M10656) was added to make a working concentration of 50 mg/ml for dose administration. Stability, strength, and uniformity of the test articles in the dose formulations were not determined for this study.
# Forty-two CD1 male mice purchased from Charles River Laboratories (Wilmington, Mass.) were used in the study. Mice were quarantined for 3 days prior to initiation of the study.
# Mice were weighed and randomized into treatment groups on the day prior to the first dose administration. Due to limitations in the amount of available test materials, fewer mice in 1000 mg/kg groups were treated than specified in the protocol. The numbers of animals intended to be used and actually used with each compound at each dose level are shown in the table below; the only differences are in the high-dose groups.
# Surviving animals were sacrificed on Day 8 and blood was collected for clinical pathology evaluations.
# Mortality and morbidity were checked twice daily on weekdays and once daily on the weekend, see Table VI. Animals were weighed daily and prior to necropsy.
# [5] = system: malaria parasite; test: Efficacy Study Blood Schizontocidal Activity; assay type: in vivo; design: ED90: unit not given here
# [6] = system: P. berghei; details: P. berghei-infected mice; cited from earlier work
# [7] = rat liver microsomes; cited from earlier work
# [8] = Stability in air (room temperature; accelerated aging at 60° C.); assay type: physicochemical
# Source text: The next step, shown in FIG. 2, in the production of the novel meso trioxane dimer 3 involves the substitution of the acetoxy group from the C-10 acetate 2 product to form the meso trioxane dimer 3 product. Inspiration for this bis-allylation of C-10 acetate 2 was based on the pioneering trioxane mono-allylations of Ziffer (Pu, Y. M.; Ziffer, H., Synthesis and Antimalarial Activities of 12β-Allyldeoxoartemisinin. J. Med. Chem. 1995, 38, 613-616) and O'Neill (O'Neill, et al., J. Med. Chem. 1999, 42, 5487-5493; and O'Neill, P. M., et al., J. Chem. Soc., Perkin Trans. 2001, 1, 2682-2689.) using allylsilane and based also on allylic bis-silane chemistry, see Rychnovsky, S. D., et. al., Tetrahedron Lett. 1999, 40, 41-44. The requisite allylic bis-silane is easily prepared in one step from the corresponding commercial allylic dichloride (Shown in FIG. 2); in the presence of fresh tin tetrachloride, the allylic bis-silane converts acetate 2 on gram scale into meso dimer 3, characterized by ^1H NMR spectroscopy as done before in structurally related trioxanes. This double substitution reaction undoubtedly proceeds sequentially via initial monoallylation, producing an intermediate C-10 allylic silane that then reacts with another molecule of trioxane acetate 2 to form the product dimer 3. […]
# [9] = system: Ehrlich ascites tumor (EAT) cells; details: MTT assay; cited from earlier work
# [10] = Table I, NF54 strain, read-out: IC50
Compound,"IC50 [1, 10] [nM]",IC50 [1],further results
"CC1CCC2C(C)C(CC3(CC4OC5OC6(C)CCC7C(C)CCC(C4C)C57OO6)COS(=O)(=O)O3)OC3OC4(C)CCC1C32OO4 (stereo not drawn) [Compound 42, bis-trioxane vicinal diol cyclic sulfate]",19,–,–
"COS(=O)(=O)CC(O)(CC1OC2OC3(C)CCC4C(C)CCC(C1C)C24OO3)CC1OC2OC3(C)CCC4C(C)CCC(C1C)C24OO3 (stereo not drawn) [Compound 38, bis-trioxane tertiary alcohol methyl sulfonate]",200,–,–
"CC1CCC2C(C)C(CC(O)CC3OC4OC5(C)CCC6C(C)CCC(C3C)C46OO5)OC3OC4(C)CCC1C32OO4 (stereo not drawn) [Compound 17, bis-trioxane secondary alcohol]",0.66,below one nM,–
"CC1CCC2C(C)C(CC(COC(=O)c3ccncc3)CC3OC4OC5(C)CCC6C(C)CCC(C3C)C46OO5)OC3OC4(C)CCC1C32OO4 (stereo not drawn) [Compound 8b, bis-trioxane primary alcohol isonicotinate]",1.7,–,–
"CC1CCC2C(C)C(CC(CC3OC4OC5(C)CCC6C(C)CCC(C3C)C46OO5)OC(=O)c3ccc[n+]([O-])c3)OC3OC4(C)CCC1C32OO4 (stereo not drawn) [Compound 25, bis-trioxane secondary alcohol nicotinate N-oxide]",0.31,sub-nanomolar,–
"CC1CCC2C(C)C(CC3(CC4OC5OC6(C)CCC7C(C)CCC(C4C)C57OO6)COC(=O)O3)OC3OC4(C)CCC1C32OO4 (stereo not drawn) [Compound 41, bis-trioxane vicinal diol cyclic carbonate]",0.59,sub-nanomolar,–
"COC(=O)OCC(CC1OC2OC3(C)CCC4C(C)CCC(C1C)C24OO3)CC1OC2OC3(C)CCC4C(C)CCC(C1C)C24OO3 (stereo not drawn) [Compound 36, bis-trioxane primary alcohol methyl carbonate]",1.7,–,–
"C[C@@H]1CC[C@H]2[C@@H](C)C(CC(=O)CC3OC4O[C@]5(C)CC[C@H]6[C@H](C)CC[C@@H]([C@H]3C)C46OO5)OC3O[C@]4(C)CCC1C32OO4 (stereo partly drawn) [Compound 7, bis-trioxane ketone]",0.91,below one nM,growth inhibition in words [2]: less inhibitory; antimalarial potency in vitro relative to artemisinin [1]: 10 times
"CC1CCC2C(C)C(CC(COC(=O)c3ccc[n+]([O-])c3)CC3OC4OC5(C)CCC6C(C)CCC(C3C)C46OO5)OC3OC4(C)CCC1C32OO4 (stereo not drawn) [Compound 15, bis-trioxane primary alcohol nicotinate N-oxide]",0.58,sub-nanomolar,–
"CCOC(=O)OCC(CC1OC2OC3(C)CCC4C(C)CCC(C1C)C24OO3)CC1OC2OC3(C)CCC4C(C)CCC(C1C)C24OO3 (stereo not drawn) [Compound 37, bis-trioxane primary alcohol ethyl carbonate]",2.8,–,–
"CC1CCC2C(C)C(OC(=O)CN(C)C)OC3OC4(C)CCC1C32OO4 (stereo not drawn) [Compound 32, α-dihydroartemisinin dimethylglycinate]",1.1,–,–
"C[C@H]1[C@H](OC(=O)CCC(=O)[O-])O[C@@H]2O[C@@]3(C)CC[C@H]4[C@H](C)CC[C@@H]1[C@@]24OO3.[Na+] [Sodium Artesunate, sodium artesunate, reference compound]",–,–,ED50 ([3]; route PO): 10.0 mg/kg × 4 and 5.5 mg/kg × 4; ED90 ([3]; route PO): 39.0 mg/kg × 4 and 70.0 mg/kg × 4; % Parasite Supression at 10 mg/kg ([3]; route PO): 52.8% and 50.9%; Mortality ([4]; 125 mg/kg): No death; Mortality ([4]; 250 mg/kg): 1/3 dead; Mortality ([4]; 500 mg/kg): 3/3 dead; ED50 ([5]; Route: IV): 5 mg/kg; ED90 ([5]; Route: IV): 40.0; ED50 ([5]; Route: PO): 6 mg/kg; ED90 ([5]; Route: PO): 60.0
"C[C@@H]1CC[C@H]2[C@@H](C)C(CC3(CC4OC5O[C@]6(C)CC[C@H]7[C@H](C)CC[C@@H]([C@H]4C)C57OO6)CO3)OC3O[C@]4(C)CCC1C32OO4 (stereo partly drawn) [Compound 6, bis-trioxane epoxide]",2.8,–,growth inhibition in words [2]: less inhibitory
CC1=CO[C@@H]2O[C@]3(C)CC[C@H]4[C@H](C)CC[C@@H]1[C@@]24OO3 [III],–,–,activity in words [6]: inactive
CCO[C@H]1O[C@@H]2O[C@@]3(C)CC[C@H]4[C@H](C)CC[C@@H]([C@H]1C)[C@@]24OO3 [arteether],–,–,conversion into dihydroartemisinin [7]: rapidly converted
"CC1CCC2C(C)C(CC(CC3OC4OC5(C)CCC6C(C)CCC(C3C)C46OO5)OC(=O)c3cc[n+]([O-])cc3)OC3OC4(C)CCC1C32OO4 (stereo not drawn) [Compound 24, bis-trioxane secondary alcohol isonicotinate N-oxide]",0.42,sub-nanomolar,–
"C[C@@H]1[C@H](OCc2ccc(C(=O)O)cc2)O[C@@H]2O[C@@]3(C)CC[C@@H]4[C@@H](C)CC[C@@H]1[C@]24OO3 [Artelinic Acid, artelinic acid, reference compound]",–,–,ED50 ([3]; route IV): 11.0 mg/kg × 4 and 5.6 mg/kg × 4; ED90 ([3]; route IV): 25.0 mg/kg × 4 and 43.0 mg/kg × 4; % Parasite Supression at 10 mg/kg ([3]; route IV): 54.7% and 42.4%
"C=C(CC1OC2OC3(C)CCC4C(C)CCC(C1C)C24OO3)CC1OC2OC3(C)CCC4C(C)CCC(C1C)C24OO3 (stereo not drawn) [Compound 3, trioxane isobutene dimer]",–,–,stability in air and light in words [8]: stable in air and light at room temperature for at least six months; IC50 ([1]; read-out: IC50): 24 nM
"CC1CCC2C(C)C(CC(O)(COCC(=O)O)CC3OC4OC5(C)CCC6C(C)CCC(C3C)C46OO5)OC3OC4(C)CCC1C32OO4 (stereo not drawn) [Compound 21, bis-trioxane β-hydroxy O-acetic acid]",4.4,–,–
"CC1CCC2C(C)C(CC(O)(CC(=O)O)CC3OC4OC5(C)CCC6C(C)CCC(C3C)C46OO5)OC3OC4(C)CCC1C32OO4 (stereo not drawn) [Compound 35, bis-trioxane tertiary alcohol carboxylic acid]",2,–,–
"CC1CCC2C(C)C(CC(O)(CC3OC4OC5(C)CCC6C(C)CCC(C3C)C46OO5)CS(=O)(=O)N(C)C)OC3OC4(C)CCC1C32OO4 (stereo not drawn) [Compound 40, bis-trioxane tertiary alcohol N,N-dimethylsulfonamide]",0.73,sub-nanomolar,–
"CC1CCC2C(C)C(OC(=O)c3cc[n+]([O-])cc3)OC3OC4(C)CCC1C32OO4 (stereo not drawn) [Compound 33, α-dihydroartemisinin isonicotinate N-oxide]",0.81,–,–
"CCOP(=O)(OCC)OCC(CC1OC2OC3(C)CCC4C(C)CCC(C1C)C24OO3)CC1OC2OC3(C)CCC4C(C)CCC(C1C)C24OO3 (stereo not drawn) [Compound 26, bis-trioxane primary alcohol diethyl phosphoric acid triester]",0.74,sub-nanomolar,–
"CC1CCC2C(C)C(CC(O)(COC(=O)c3cc[n+]([O-])cc3)CC3OC4OC5(C)CCC6C(C)CCC(C3C)C46OO5)OC3OC4(C)CCC1C32OO4 (stereo not drawn) [Compound 18, bis-trioxane vicinal diol isonicotinate N-oxide]",0.34,sub-nanomolar,–
"C[C@H]1[C@@H](O[C@H]2O[C@@H]3O[C@@]4(C)CC[C@H]5[C@H](C)CC[C@@H]([C@H]2C)[C@@]35OO4)O[C@@H]2O[C@@]3(C)CC[C@H]4[C@H](C)CC[C@@H]1[C@@]24OO3 [II-7, dihydroartemisinin condensation by-product]",–,–,SD90 [6]: 10 mg/kg; IC50 [9]: 1400 nM
"CC1CCC2C(C)C(CC(O)(COC(=O)c3ccc[n+]([O-])c3)CC3OC4OC5(C)CCC6C(C)CCC(C3C)C46OO5)OC3OC4(C)CCC1C32OO4 (stereo not drawn) [Compound 23, bis-trioxane vicinal diol nicotinate N-oxide]",0.4,sub-nanomolar,–
"COP(=O)(OC)OCC(CC1OC2OC3(C)CCC4C(C)CCC(C1C)C24OO3)CC1OC2OC3(C)CCC4C(C)CCC(C1C)C24OO3 (stereo not drawn) [Compound 27, bis-trioxane primary alcohol dimethyl phosphoric acid triester]",0.48,sub-nanomolar,–

# From patent publication US7417156B2, “Orally active, antimalarial, anticancer, artemisinin-derived trioxane dimers” (Johns Hopkins University, priority 2002, dated 2008)
